This is an account of results in patent US11014942B2, “Preparation of a solid form of gadobenate dimeglumine” (BRACCO IMAGING S.P.A., priority 2014, dated 2021).

For data set [1] the following is noted: cited from earlier work; for Log P of antisolvent B: Table 1, CRC Handbook, values labelled * from U.S. National Library of Medicine; for log P (octanol/water partition coefficient): values listed in the description, CRC Handbook or US National Library of Medicine tables.
Data set [2] can be described thus: water dissolution of the solid form. The format is physicochemical. The source says: As formerly discussed, the complex compound collected with the proposed process is endowed with a good stability, favorable workability and, especially, optimal water solubility.
Data set [3] can be described thus: solubility in solvent A (upper concentration limit). The format is physicochemical. The source says:
Higher concentrations (of the gadobenate compound in the solvent A), for instance of at least 10% or, preferably, equal to or higher than 20%, are, however, preferred for the use of the invention, conveniently reducing organic solvent waste.

Data set [4] can be described thus: storage stability of the collected solid. The format is physicochemical. The conditions noted are these: when properly stored, under inert atmosphere. The source says: Moreover, after its isolation, the collected solid product can conveniently be stored for long periods of time, for instance up to 2 years when properly stored, (i.e. under inert atmosphere) in a form that is ready for use in the preparation of the MultiHance® formulation, by simple dissolution of the solid compound in the proper amount of a pharmaceutically acceptable aqueous solution, such as, for instance, the sterile water for injections (WFI) or any another proper aqueous medium, according to procedures commonly employed in the art.

For `COCC(C)O` (stereo not drawn) [1-methoxy-2-propanol], in data set [1], the “Log P of antisolvent B” value is recorded as −0.44 and the “log P (octanol/water partition coefficient)” value was −0.437.
Regarding `CCC(C)=O` [2-butanone], the “log P (octanol/water partition coefficient)” value in data set [1] is on record as 0.29.
In the case of `O=C1CCCCC1` [cyclohexanone], the “log P (octanol/water partition coefficient)” value in data set [1] was 0.81.
As to `COCCOCCOC` [diethylene glycol dimethyl ether], in data set [1], the “Log P of antisolvent B” value is reported as −0.36* and the “log P (octanol/water partition coefficient)” value was −0.36.
For `O=C([O-])CN(CCN(CC(=O)[O-])CC(=O)[O-])CCN(CC(=O)O)C(COCc1ccccc1)C(=O)O.[Gd+3]` (stereo not drawn) [gadobenate dimeglumine, gadolinium complex of the 4-carboxy-5,8,11-tris(carboxymethyl)-1-phenyl-2-oxa-5,8,11-triazatridecan-13-oic acid], the “water required for complete dissolution” value in data set [2] (at 25-30° C.) was “less than 1 mL of water for 1 g of product”. In addition, the “time to complete ready dissolution in water” value in data set [2] (less than 1 mL of water for 1 g of product at 25-30° C.) was “less than five minutes”. In data set [3] (solvent A methanol), the “upper concentration limit consistent with solubility in methanol” value is listed as “about 50%”. Further, the “upper concentration limit based on solubility in water or aqueous solvent” value in data set [3] (solvent A water or aqueous solvent such as saline solution) is given as “about 70%”. Also, the “storage time of the collected solid product” value in data set [4] is listed as “up to 2 years”.
For the molecule `CC(=O)CC(C)C` [methyl isobutyl ketone], in data set [1], the “Log P of antisolvent B” value is reported as 0.56 and the “log P (octanol/water partition coefficient)” value was 0.56.
On to `C1CCOC1` [tetrahydrofurane], for which, in data set [1], the “Log P of antisolvent B” value is given as 0.46 and the “log P (octanol/water partition coefficient)” value is recorded as 0.46.
